# Source: patent publication US9751888B2, “Heterocyclic compounds and uses thereof” (Infinity Pharmaceuticals, Inc., priority 2013, dated 2017)
# Molecular target: human Class I PI3 kinase α (Homo sapiens (Human), UniProt P42336)
# Assay: PI3-Kinase Promega ADP-Glo Max assay, α isoform
# Format: biochemical
# Conditions: 20 nM kinase, 3 mM ATP, 500 uM diC8-PtdInsP; read-out: Promega α PI3K IC50
# Sequence of human Class I PI3 kinase α (P42336 whole entry, canonical isoform): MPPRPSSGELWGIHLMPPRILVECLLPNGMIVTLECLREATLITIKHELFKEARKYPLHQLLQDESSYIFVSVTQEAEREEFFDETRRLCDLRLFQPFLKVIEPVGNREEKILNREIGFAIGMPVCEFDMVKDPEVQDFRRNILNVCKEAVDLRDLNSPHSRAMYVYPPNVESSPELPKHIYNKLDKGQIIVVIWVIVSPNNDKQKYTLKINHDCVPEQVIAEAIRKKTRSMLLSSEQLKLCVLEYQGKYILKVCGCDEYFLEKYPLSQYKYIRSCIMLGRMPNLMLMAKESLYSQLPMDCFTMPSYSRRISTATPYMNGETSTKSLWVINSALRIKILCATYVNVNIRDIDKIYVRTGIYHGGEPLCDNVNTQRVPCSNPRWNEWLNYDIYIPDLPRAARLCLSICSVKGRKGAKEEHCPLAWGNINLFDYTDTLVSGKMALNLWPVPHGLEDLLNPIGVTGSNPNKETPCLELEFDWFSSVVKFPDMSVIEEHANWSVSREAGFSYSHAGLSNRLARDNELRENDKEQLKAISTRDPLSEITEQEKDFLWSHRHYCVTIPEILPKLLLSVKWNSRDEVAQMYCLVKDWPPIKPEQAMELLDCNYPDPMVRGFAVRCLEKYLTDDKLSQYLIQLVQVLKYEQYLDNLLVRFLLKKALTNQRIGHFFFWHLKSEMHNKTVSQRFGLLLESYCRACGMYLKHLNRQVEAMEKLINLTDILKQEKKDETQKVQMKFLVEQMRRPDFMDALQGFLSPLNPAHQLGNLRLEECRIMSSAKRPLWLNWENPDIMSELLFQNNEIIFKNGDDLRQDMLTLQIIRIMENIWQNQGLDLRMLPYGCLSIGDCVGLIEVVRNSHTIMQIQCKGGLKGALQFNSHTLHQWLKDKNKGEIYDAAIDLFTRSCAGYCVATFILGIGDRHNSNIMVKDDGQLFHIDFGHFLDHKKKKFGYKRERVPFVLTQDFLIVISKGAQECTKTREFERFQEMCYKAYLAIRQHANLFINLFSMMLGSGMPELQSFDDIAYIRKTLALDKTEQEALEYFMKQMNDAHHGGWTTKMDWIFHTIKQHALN
# Sequence of human Class I PI3 kinase α (P27986 whole entry partner, canonical isoform): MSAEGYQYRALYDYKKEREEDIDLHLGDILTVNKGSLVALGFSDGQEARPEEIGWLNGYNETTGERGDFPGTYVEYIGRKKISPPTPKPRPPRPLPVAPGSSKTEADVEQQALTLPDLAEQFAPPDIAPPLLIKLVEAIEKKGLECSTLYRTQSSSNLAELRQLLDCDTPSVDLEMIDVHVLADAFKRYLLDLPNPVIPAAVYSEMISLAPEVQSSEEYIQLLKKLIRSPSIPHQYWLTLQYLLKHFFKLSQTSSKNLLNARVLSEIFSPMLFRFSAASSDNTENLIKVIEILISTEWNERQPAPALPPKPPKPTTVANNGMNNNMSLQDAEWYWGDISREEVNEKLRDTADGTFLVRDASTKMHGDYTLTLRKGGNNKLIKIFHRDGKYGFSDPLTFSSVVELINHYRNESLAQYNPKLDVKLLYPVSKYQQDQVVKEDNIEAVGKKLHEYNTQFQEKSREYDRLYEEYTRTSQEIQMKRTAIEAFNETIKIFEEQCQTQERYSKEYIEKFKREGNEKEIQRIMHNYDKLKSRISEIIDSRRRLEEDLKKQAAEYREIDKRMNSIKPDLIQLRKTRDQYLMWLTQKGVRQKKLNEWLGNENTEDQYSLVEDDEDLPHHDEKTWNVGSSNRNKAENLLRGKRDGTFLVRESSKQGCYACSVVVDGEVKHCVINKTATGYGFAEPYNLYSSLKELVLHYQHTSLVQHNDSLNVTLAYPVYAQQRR
row,IC50,Structure (SMILES)
1,1000 to 10000 nM,C[C@H](NC(=O)c1c(N)nn2cccnc12)c1cc2cccc(Cl)c2c(=O)n1-c1cccnc1 [Compound 76]
2,1000 to 10000 nM,C[C@H](NC(=O)c1c(N)nn2cccnc12)c1cc2cccc(Cl)c2c(=O)n1-c1cccc(S(C)(=O)=O)c1 [Compound 77]
3,1000 to 10000 nM,C[C@H](NC(=O)c1c(N)nn2cccnc12)c1cc2cccc(Cl)c2c(=O)n1-c1ccccc1NS(C)(=O)=O [Compound 78]
4,1000 to 10000 nM,C[C@H](NC(=O)c1c(N)nn2cccnc12)c1cc2cccc(Cl)c2c(=O)n1-c1cccc(NS(C)(=O)=O)c1 [Compound 79]

# Continued, compound first:
row,Structure (SMILES),IC50
1,Cc1cccc(-n2c([C@H](C)NC(=O)c3c(N)nn4cccnc34)cc3cccc(Cl)c3c2=O)c1 [Compound 74],1000 to 10000 nM
2,Cc1ccc(-n2c([C@H](C)NC(=O)c3c(N)nn4cccnc34)cc3cccc(Cl)c3c2=O)cc1 [Compound 75],1000 to 10000 nM
3,C[C@H](NC(=O)c1c(N)nn2cccnc12)c1cc2cccc(Cl)c2c(=O)n1-c1ccc(S(C)(=O)=O)cc1 [Compound 80],1000 to 10000 nM

# Molecular target: human Class I PI3 kinase β (Homo sapiens (Human), UniProt P42338)
# Assay: PI3-Kinase Promega ADP-Glo Max assay, β isoform
# Format: biochemical
# Conditions: 40 nM kinase, 3 mM ATP, 500 uM diC8-PtdInsP; read-out: Promega β PI3K IC50
row,IC50,Structure (SMILES)
1,500 to 1000 nM,C[C@H](NC(=O)c1c(N)nn2cccnc12)c1cc2cccc(Cl)c2c(=O)n1-c1cccnc1 [Compound 76]
2,500 to 1000 nM,C[C@H](NC(=O)c1c(N)nn2cccnc12)c1cc2cccc(Cl)c2c(=O)n1-c1cccc(S(C)(=O)=O)c1 [Compound 77]
3,1000 to 10000 nM,C[C@H](NC(=O)c1c(N)nn2cccnc12)c1cc2cccc(Cl)c2c(=O)n1-c1ccccc1NS(C)(=O)=O [Compound 78]
4,100 to 500 nM,C[C@H](NC(=O)c1c(N)nn2cccnc12)c1cc2cccc(Cl)c2c(=O)n1-c1cccc(NS(C)(=O)=O)c1 [Compound 79]

# The next lines start with the compound.
row,Structure (SMILES),IC50
1,Cc1cccc(-n2c([C@H](C)NC(=O)c3c(N)nn4cccnc34)cc3cccc(Cl)c3c2=O)c1 [Compound 74],1000 to 10000 nM
2,Cc1ccc(-n2c([C@H](C)NC(=O)c3c(N)nn4cccnc34)cc3cccc(Cl)c3c2=O)cc1 [Compound 75],1000 to 10000 nM
3,C[C@H](NC(=O)c1c(N)nn2cccnc12)c1cc2cccc(Cl)c2c(=O)n1-c1ccc(S(C)(=O)=O)cc1 [Compound 80],1000 to 10000 nM

# Molecular target: human Class I PI3 kinase δ (Homo sapiens (Human), UniProt O00329)
# Sequence (O00329 whole entry, canonical isoform): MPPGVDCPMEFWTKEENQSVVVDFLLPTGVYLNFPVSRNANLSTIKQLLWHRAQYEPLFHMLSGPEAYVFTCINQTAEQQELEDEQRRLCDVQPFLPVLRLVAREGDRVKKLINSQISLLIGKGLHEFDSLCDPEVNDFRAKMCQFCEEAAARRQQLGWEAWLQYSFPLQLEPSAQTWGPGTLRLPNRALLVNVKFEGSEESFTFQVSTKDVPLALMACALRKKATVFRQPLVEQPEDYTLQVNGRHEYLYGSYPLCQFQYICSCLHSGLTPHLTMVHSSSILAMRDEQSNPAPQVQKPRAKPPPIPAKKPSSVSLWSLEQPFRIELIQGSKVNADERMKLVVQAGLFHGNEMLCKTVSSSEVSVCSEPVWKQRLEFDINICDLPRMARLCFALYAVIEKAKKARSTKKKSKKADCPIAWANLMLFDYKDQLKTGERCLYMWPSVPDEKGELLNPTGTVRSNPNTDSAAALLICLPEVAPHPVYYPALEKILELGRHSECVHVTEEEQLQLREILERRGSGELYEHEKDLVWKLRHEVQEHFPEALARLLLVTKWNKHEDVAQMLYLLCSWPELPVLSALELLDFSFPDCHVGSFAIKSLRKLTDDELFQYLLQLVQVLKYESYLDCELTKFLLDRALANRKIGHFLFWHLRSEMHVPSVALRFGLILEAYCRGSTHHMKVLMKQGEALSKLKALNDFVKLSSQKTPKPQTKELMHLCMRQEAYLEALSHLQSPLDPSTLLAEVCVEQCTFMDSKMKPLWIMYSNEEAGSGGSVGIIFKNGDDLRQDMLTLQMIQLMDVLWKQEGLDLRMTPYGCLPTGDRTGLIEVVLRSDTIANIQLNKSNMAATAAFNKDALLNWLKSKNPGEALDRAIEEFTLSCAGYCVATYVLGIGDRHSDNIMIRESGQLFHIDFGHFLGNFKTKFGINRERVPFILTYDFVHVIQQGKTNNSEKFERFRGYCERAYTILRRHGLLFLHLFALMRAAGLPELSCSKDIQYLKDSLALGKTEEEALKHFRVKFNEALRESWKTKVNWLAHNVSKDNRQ
# Sequence (P27986 whole entry partner, canonical isoform): as the sequence (P27986 whole entry partner, canonical isoform) above
# Assay: PI3-Kinase Promega ADP-Glo Max assay, δ isoform
# Format: biochemical
# Conditions: 20 nM kinase, 3 mM ATP, 500 uM diC8-PtdInsP; read-out: Promega δ PI3K IC50
row,IC50,Structure (SMILES)
1,1000 to 10000 nM,C[C@H](NC(=O)c1c(N)nn2cccnc12)c1cc2cccc(Cl)c2c(=O)n1-c1cccnc1 [Compound 76]
2,1000 to 10000 nM,C[C@H](NC(=O)c1c(N)nn2cccnc12)c1cc2cccc(Cl)c2c(=O)n1-c1cccc(S(C)(=O)=O)c1 [Compound 77]
3,1000 to 10000 nM,C[C@H](NC(=O)c1c(N)nn2cccnc12)c1cc2cccc(Cl)c2c(=O)n1-c1ccccc1NS(C)(=O)=O [Compound 78]
4,500 to 1000 nM,C[C@H](NC(=O)c1c(N)nn2cccnc12)c1cc2cccc(Cl)c2c(=O)n1-c1cccc(NS(C)(=O)=O)c1 [Compound 79]

# Continued, compound first:
row,Structure (SMILES),IC50
1,Cc1cccc(-n2c([C@H](C)NC(=O)c3c(N)nn4cccnc34)cc3cccc(Cl)c3c2=O)c1 [Compound 74],500 to 1000 nM
2,Cc1ccc(-n2c([C@H](C)NC(=O)c3c(N)nn4cccnc34)cc3cccc(Cl)c3c2=O)cc1 [Compound 75],1000 to 10000 nM
3,C[C@H](NC(=O)c1c(N)nn2cccnc12)c1cc2cccc(Cl)c2c(=O)n1-c1ccc(S(C)(=O)=O)cc1 [Compound 80],1000 to 10000 nM

# Molecular target: human Class I PI3 kinase γ (Homo sapiens (Human), UniProt P48736)
# Assay: PI3-Kinase Promega ADP-Glo Max assay, γ isoform
# Format: biochemical
# Conditions: 40 nM kinase, 3 mM ATP, 500 uM diC8-PtdInsP; read-out: Promega γ PI3K IC50
# Protocol: Promega ADP-Glo Max assay kit (Cat. No. V7002) was utilized to determine IC50 values for α, β, δ and γ isoforms of human Class I PI3 kinases (Millipore). Samples of kinase (20 nM α or δ, 40 nM β or γ isoform) were incubated with compound for 15 minutes at room temperature in reaction buffer (15 mM HEPES pH 7.4, 20 mM NaCl, 1 mM EGTA, 0.02% Tween 20, 10 mM MgCl2, 0.2 mg/mL bovine-γ-globulins) followed by addition of ATP/diC8-PtdInsP mixture to give final concentrations of 3 mM ATP and 500 uM diC8-PtdInsP. Reactions were incubated at room temperature for 2 hours followed by addition of 25 uL of stop solution. After a 40-minute incubation at room temperature, 50 uL of Promega detection mix was added followed by incubation for 1 hour at room temperature. Plates were then read on Envision plate reader in luminescence mode. Data was converted to % inhibition using the following equation below:
# [formula] where S is the sample luminescence, Pos is a positive control without added PI3K, Neg is the negative control without added compound. Data was then plotted as % inhibition vs compound concentration.
# Certain compounds provided herein were tested in PI3-Kinase Promega Assay using procedures as described above to determine IC50 values for α, β, δ and/or γ isoforms.
row,IC50,Structure (SMILES)
1,100 to 500 nM,C[C@H](NC(=O)c1c(N)nn2cccnc12)c1cc2cccc(Cl)c2c(=O)n1-c1cccnc1 [Compound 76]
2,500 to 1000 nM,C[C@H](NC(=O)c1c(N)nn2cccnc12)c1cc2cccc(Cl)c2c(=O)n1-c1cccc(S(C)(=O)=O)c1 [Compound 77]
3,100 to 500 nM,C[C@H](NC(=O)c1c(N)nn2cccnc12)c1cc2cccc(Cl)c2c(=O)n1-c1ccccc1NS(C)(=O)=O [Compound 78]
4,100 to 500 nM,C[C@H](NC(=O)c1c(N)nn2cccnc12)c1cc2cccc(Cl)c2c(=O)n1-c1cccc(NS(C)(=O)=O)c1 [Compound 79]

# The remaining lines, values behind:
row,Structure (SMILES),IC50
1,Cc1cccc(-n2c([C@H](C)NC(=O)c3c(N)nn4cccnc34)cc3cccc(Cl)c3c2=O)c1 [Compound 74],100 to 500 nM
2,Cc1ccc(-n2c([C@H](C)NC(=O)c3c(N)nn4cccnc34)cc3cccc(Cl)c3c2=O)cc1 [Compound 75],100 to 500 nM
3,C[C@H](NC(=O)c1c(N)nn2cccnc12)c1cc2cccc(Cl)c2c(=O)n1-c1ccc(S(C)(=O)=O)cc1 [Compound 80],1000 to 10000 nM

# Molecular target: p110 δ (RAJI cells) (Homo sapiens (Human), UniProt O00329)
# Sequence (O00329 whole entry): as the sequence (O00329 whole entry, canonical isoform) above
# Sequence (P27986 whole entry partner): as the sequence (P27986 whole entry partner, canonical isoform) above
# Assay: PI3K-δ selective cellular assay: phospho-AKT in anti-human IgM stimulated RAJI cells
# Format: cell-based
# Conditions: serum-starved RAJI cells stimulated with anti-human IgM
# Text: A compound's ability in selectively inhibiting PI3K-δ can be assessed using RAJI cells, i.e., B lymphocyte cells derived from lymphoma patients. Briefly, serum-starved RAJI cells are stimulated with anti-human IgM, thereby causing signaling through the B-cell receptors, as described in, for example, He et al., Leukemia Research (2009) 33: 798-802. B-cell receptor signaling is important for the activation, differentiation, and survival of B cells and certain B-cell derived cancers. Reduction of phospho-AKT is indicative of compounds that may inhibit B-cell proliferation and function in certain diseases. […] Certain compounds provided herein were tested in RAJI cell model using procedures as described above.
row,IC50,Structure (SMILES)
1,100 to 500 nM,C[C@H](NC(=O)c1c(N)nn2cccnc12)c1cc2cccc(Cl)c2c(=O)n1-c1cccnc1 [Compound 76]
2,100 to 500 nM,C[C@H](NC(=O)c1c(N)nn2cccnc12)c1cc2cccc(Cl)c2c(=O)n1-c1cccc(S(C)(=O)=O)c1 [Compound 77]
3,100 to 500 nM,C[C@H](NC(=O)c1c(N)nn2cccnc12)c1cc2cccc(Cl)c2c(=O)n1-c1ccccc1NS(C)(=O)=O [Compound 78]
4,10 to 100 nM,C[C@H](NC(=O)c1c(N)nn2cccnc12)c1cc2cccc(Cl)c2c(=O)n1-c1cccc(NS(C)(=O)=O)c1 [Compound 79]

# Continued, compound first:
row,Structure (SMILES),IC50
1,Cc1cccc(-n2c([C@H](C)NC(=O)c3c(N)nn4cccnc34)cc3cccc(Cl)c3c2=O)c1 [Compound 74],10 to 100 nM
2,Cc1ccc(-n2c([C@H](C)NC(=O)c3c(N)nn4cccnc34)cc3cccc(Cl)c3c2=O)cc1 [Compound 75],10 to 100 nM
3,C[C@H](NC(=O)c1c(N)nn2cccnc12)c1cc2cccc(Cl)c2c(=O)n1-c1ccc(S(C)(=O)=O)cc1 [Compound 80],500 to 1000 nM

# Molecular target: p110 γ (RAW264.7 cells) (Mus musculus (Mouse), UniProt Q9JHG7)
# Sequence (Q9JHG7 whole entry): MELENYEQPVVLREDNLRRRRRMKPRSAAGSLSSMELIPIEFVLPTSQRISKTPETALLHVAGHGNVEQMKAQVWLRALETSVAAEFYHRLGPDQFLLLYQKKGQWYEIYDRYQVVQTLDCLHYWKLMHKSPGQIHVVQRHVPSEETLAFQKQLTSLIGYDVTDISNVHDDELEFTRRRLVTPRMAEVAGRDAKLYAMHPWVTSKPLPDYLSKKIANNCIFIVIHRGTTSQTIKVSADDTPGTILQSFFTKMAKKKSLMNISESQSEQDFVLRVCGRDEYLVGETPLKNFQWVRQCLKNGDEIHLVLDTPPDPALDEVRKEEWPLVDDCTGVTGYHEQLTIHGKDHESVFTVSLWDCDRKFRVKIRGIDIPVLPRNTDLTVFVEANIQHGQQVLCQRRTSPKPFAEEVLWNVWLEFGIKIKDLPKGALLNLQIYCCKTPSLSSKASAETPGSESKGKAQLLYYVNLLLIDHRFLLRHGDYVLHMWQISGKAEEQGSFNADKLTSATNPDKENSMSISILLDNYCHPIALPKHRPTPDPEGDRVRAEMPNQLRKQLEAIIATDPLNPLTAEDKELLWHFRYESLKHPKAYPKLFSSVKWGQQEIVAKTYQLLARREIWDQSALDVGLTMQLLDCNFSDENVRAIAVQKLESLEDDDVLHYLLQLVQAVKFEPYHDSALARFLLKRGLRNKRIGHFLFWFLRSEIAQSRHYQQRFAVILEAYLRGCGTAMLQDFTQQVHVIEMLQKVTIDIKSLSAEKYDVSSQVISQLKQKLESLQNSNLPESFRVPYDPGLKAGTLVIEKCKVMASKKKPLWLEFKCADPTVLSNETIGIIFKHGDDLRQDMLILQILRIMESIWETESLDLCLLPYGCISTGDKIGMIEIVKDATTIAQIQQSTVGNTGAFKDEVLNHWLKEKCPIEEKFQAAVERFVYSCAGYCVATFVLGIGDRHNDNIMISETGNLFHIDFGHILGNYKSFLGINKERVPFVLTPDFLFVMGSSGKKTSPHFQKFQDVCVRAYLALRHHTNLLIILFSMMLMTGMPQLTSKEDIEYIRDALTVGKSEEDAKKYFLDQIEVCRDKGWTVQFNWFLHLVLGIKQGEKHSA
# Assay: PI3K-γ selective cellular assay: phospho-AKT in C5a stimulated RAW264.7 macrophages
# Format: cell-based
# Conditions: serum-starved RAW264.7 cells stimulated with C5a
# Protocol: Certain compounds provided herein were tested in RAW 264.7 cell model using procedures as described above.
row,IC50,Structure (SMILES)
1,10 to 100 nM,C[C@H](NC(=O)c1c(N)nn2cccnc12)c1cc2cccc(Cl)c2c(=O)n1-c1cccnc1 [Compound 76]
2,100 to 500 nM,C[C@H](NC(=O)c1c(N)nn2cccnc12)c1cc2cccc(Cl)c2c(=O)n1-c1cccc(S(C)(=O)=O)c1 [Compound 77]
3,10 to 100 nM,C[C@H](NC(=O)c1c(N)nn2cccnc12)c1cc2cccc(Cl)c2c(=O)n1-c1ccccc1NS(C)(=O)=O [Compound 78]
4,100 to 500 nM,C[C@H](NC(=O)c1c(N)nn2cccnc12)c1cc2cccc(Cl)c2c(=O)n1-c1cccc(NS(C)(=O)=O)c1 [Compound 79]

# Further lines, the compound ahead of its results:
row,Structure (SMILES),IC50
1,Cc1cccc(-n2c([C@H](C)NC(=O)c3c(N)nn4cccnc34)cc3cccc(Cl)c3c2=O)c1 [Compound 74],10 to 100 nM
2,Cc1ccc(-n2c([C@H](C)NC(=O)c3c(N)nn4cccnc34)cc3cccc(Cl)c3c2=O)cc1 [Compound 75],10 to 100 nM
3,C[C@H](NC(=O)c1c(N)nn2cccnc12)c1cc2cccc(Cl)c2c(=O)n1-c1ccc(S(C)(=O)=O)cc1 [Compound 80],1000 to 10000 nM
